ChEMBL document CHEMBL3867437, “Oryzamides A-E, Cyclodepsipeptides from the Sponge-Derived Fungus Nigrospora oryzae PF18” (J Nat Prod, 2016)
In brackets after ≈: the same amount, converted by molar mass.

How the values were obtained:
[1] = Cytotoxicity against human HeLa cells after 48 hrs by MTT assay; type: functional, cell-based
Staphylococcus aureus [2] = assay: Antibacterial activity against methicillin-sensitive Staphylococcus aureus ATCC 25923 after 24 hrs by spectrophotometric analysis; type: functional; conditions: ATCC 25923, 24 h
Staphylococcus aureus [3] = assay: Antibacterial activity against methicillin-resistant Staphylococcus aureus ATCC 43300 after 24 hrs by spectrophotometric analysis; type: functional; conditions: ATCC 43300, 24 h
Escherichia coli = assay: Antibacterial activity against Escherichia coli ATCC 25922 after 24 hrs by spectrophotometric analysis; type: functional; conditions: ATCC 25922, 24 h

SMILES | IC50 [1] [µM] | MIC (Staphylococcus aureus [2]) [µg/mL] | MIC (Staphylococcus aureus [3]) [µg/mL] | MIC (Escherichia coli) [µg/mL]
CCCCCC[C@H](C)[C@@H]1CC(=O)NCC(=O)N[C@@H](C(C)C)C(=O)N[C@H](CC(C)C)C(=O)N[C@@H](C)C(=O)N[C@@H](CCSC)C(=O)O1 | 31.3 |  |  | 
CCCCCC[C@H](C)[C@@H]1CC(=O)NCC(=O)N[C@@H](C(C)C)C(=O)N[C@H](CC(C)C)C(=O)N[C@@H](C)C(=O)N[C@@H](CC(C)C)C(=O)O1 | 25.7 |  |  | 
CCCCCC[C@H](C)[C@@H]1CC(=O)NCC(=O)N[C@@H](C(C)C)C(=O)N[C@H](CC(C)C)C(=O)N[C@@H](C)C(=O)N[C@@H](Cc2ccc(O)cc2)C(=O)O1 | 12.4 |  |  | 
O=C(N[C@H](CO)[C@H](O)c1ccc([N+](=O)[O-])cc1)C(Cl)Cl [CHLORAMPHENICOL] |  | 2 (≈ 6.19 µM) | 4 (≈ 12.4 µM) | 2 (≈ 6.19 µM)
